From patent US20050187288A1, “Beta-lapachone and methods of treating cancer” (priority 2004, published 2005)
Read-outs that look alike come from different tables or passages of the source.

What was measured:
MCF-7 = conditions: human, 4 h
Method: (§4) Control plates received the same volume of DMSO alone. After a 4 hour exposure the drug was carefully removed, and drug-free medium could be added. […] Colonies of greater than 50 cells were scored as survivors. Cells were maintained at 37° C. in 5% CO2 in complete humidity.

HCT-116 = experiment: cells; conditions: Homo sapiens, HCT-116, read-out: LC50 (Replicate Results), HCT-116, 4 hour exposure, colonies after 14-21 days
Method: as §4
Control plates received the same volume of DMSO alone. After a 4 hour exposure the drug was carefully removed, and drug-free medium was added. […] Colonies of greater than 50 cells were scored as survivors. Cells were maintained at 37° C. in 5% CO2 in complete humidity. Each “Replicate Result” represents the result of a separate experiment.

E2F1 = E2F1 induction; type: cell-based, human; design: key: “+” symbol represents overexpression of E2F1 relative to a control
[1] = Study 4B: cardiovascular, pulmonary study in anesthetized dogs; type: in vivo
Method: In Study No. 4B, adult female Beagle dogs (one male in control group) were randomized into three study groups (3 animals/group) as shown in Table 17.
For measurement of cardiovascular function, a lead II ECG was obtained with subdermal needle electrodes and an ECG signal conditioner. Heart rate (HR) was measured with a pulse rate tachometer. The right femoral artery was cannulated with a catheter connected to a pressure transducer and pressure processor for recording mean, systolic and diastolic arterial blood pressure (BP). The left femoral artery was exposed by a flank incision and a probe (2.5 mm i.d.) connected to an electromagnetic flowmeter was placed around the artery for measurement of blood flow (BF). […] For measurement of pulmonary function, a 5.0 mm endotracheal tube connected to a pneumotachograph recorded integrated flow to yield a continuous recording of respiratory rate (RR). Intrapleural pressure was obtained from an esophageal balloon placed in the lower third of the esophagus. Transpulmonary pressure, the difference between thoracic (i.e. the external end of the endotracheal tube) and pleural pressure, was measured with a differential pressure transducer. Measurements of respiratory flow and transpulmonary pressure were used to compute total lung resistance (RL) and dynamic compliance (CDYN).
All parameters were measured and recorded immediately before (0 minute) and 5, 10, 30, 60, 90 and 120 minutes after start of the infusion. The mean±SEM value and the percentage relative to pretreatment values at each observation time point after dosing were calculated, and Dunnett's test was applied for comparison between vehicle control group and test substance treated group at the relative observation time interval. Differences were considered significant at p<0.05 level.

[2] = Study 5B: four week intravenous toxicity study in rats; conditions: for creatine kinase elevation: Day 1
Description: Blood samples were taken for hematology and clinical chemistry (Days 1, 15 and 24) and coagulation (Day 24 only) and clinical chemistry evaluation.

human plasma proteins = experiment: Binding to human plasma proteins by equilibrium dialysis; type: in vitro ADME; conditions: 2-25 μM, 37° C.
Method: (§1) The plasma aliquots were incubated at 37° C. for 1 h, and then were dialyzed against PBS buffer at 37° C. for 4 h using Dianorm Equilibrium Dialysers.

[3] = as above; type: in vitro ADME; conditions: human, pooled human plasma; 2-25 μM, 37° C.; read-out: protein binding (converted)
Method: as §1

[4] = Pharmacokinetic data from toxicology study in dogs, one-hour intravenous infusion; type: in vivo; conditions: both sexes, dog
Method: In this study, two dogs (one male, one female) were administered β-lapachone intravenously in the HPBCD formulation over one hour. The animals received escalating doses of 5, 15, 30 and 45 mg/kg, with three to four days between doses. The mean response of the two dogs is shown at each dose level. […] Doses up to and including 30 mg/kg produced no toxicity.

[5] = Study 2A: repetitive weekly intravenous toxicity study in dogs; conditions: for decreased hemoglobin: Day 23
Description: On Day 23 of the study, 4 animals/sex/group were euthanized (barbiturate overdose) followed by exsanguination and subjected to necropsy as described below.

[6] = Pharmacokinetic profile of intraperitoneal dosing in mice, Lipiodol formulation; conditions: IP 150 mg/m^2 in Lipiodol
Method: A study was performed to determine the pharmacokinetic profile of intraperitoneal (IP) dosing in mice.

CAOV-3 [7] = experiment: cells; conditions: Homo sapiens, Caov-3, read-out: LC50 (Replicate Results), CAOV-3, 4 hour exposure, colonies after 14-21 days
Method: as §4

BxPC-3 = experiment: cells; conditions: Homo sapiens
Description: (§2) Control plates received the same volume of DMSO alone.
(§3) Control plates receive the same volume of DMSO alone. […] Each “Replicate Result” represents the result of a separate experiment.

PaCa-2 = experiment: cells
Description: as §2, §3

[8] = Study 1A: repetitive weekly intravenous toxicity study in rats
[9] = Study 3A: neuropharmacological profile in rats
Method: In Study No. 3A, four groups of ten male Sprague-Dawley rats were dosed with a single 1 hour intravenous infusion via the tail vein at doses of 0 (vehicle), 5, 25, and 60 mg/kg as shown in Table 12.
Following dosing, animals were placed in a fixed environment consisting of a Plexiglas square, fitted with a lid and placed on absorbent paper to detect excretions.
Body temperatures were taken on all animals at 15 minutes following dose administration.

CAOV-3 [10] = conditions: human, 4 h
Method: as §4

ASPC-1 = experiment: Colony formation assay, combination with Taxol; type: cell-based, human; conditions: β-Lapachone 4 μM, Taxol 0.2 μM, 4 hours
Method: Control wells were treated with equivalent volumes of DMSO. After 4 hours cells were rinsed and fresh medium is added. Cultures were observed daily for 10-20 days and then were fixed and stained. […] DNA laddering formation and annexin staining indicate that cell death is due to apoptosis.

[11] = system: normal breast epithelial cells (MCF-10A); experiment: Colony formation assay, cancer vs normal breast cells; type: cell-based, human; conditions: 4 h treatment
Description: After 10-20 days, cells were fixed and stained with modified Wright-Giemsa stain.

[12] = 40 mg/kg, by the end of the infusion

For `CC1(C)CCC2=C(O1)c1ccccc1C(=O)C2=O` [β-lapachone, 3,4-dihydro-2,2-dimethyl-2H-naphtho [1,2-b]pyran-5,6-dione], the CC50 (MCF-7) was 1560 nM, the CC50 (HCT-116) was 2290 nM and the “E2F1 Induction” value (E2F1; Colon HT-29) was “+”. The “E2F1 Induction” value (E2F1; Colon SW480) was “+”, the “E2F1 Induction” value (E2F1; Pancreas PANC1) was “+” and the “reduction of tidal volume” value ([1]; 20 mg/kg, at 60 minutes) was 16%. The dynamic compliance ([1]; 40 mg/kg) was “approximately 52 % of normal”, the “increase of pulmonary resistance” value ([1]; 40 mg/kg) was “approximately 50%” and the “decrease in tidal volume” value [1, 12] was 41%. For the same molecule, the respiratory rate [1, 12] was “four-fold increase”, the “effects on cardiovascular function (BP, blood flow, heart rate, ECG incl. QTc)” value ([1]; up to and including 40 mg/kg over 1 hour) was “no significant effects on cardiovascular function” and the “mortality and clinical signs” value ([2]; 30 mg/kg dose group) was “No mortality or clinical signs of toxicity”. The creatine kinase elevation ([2]; 30 mg/kg) was 2 fold upper limit of normal, the creatine kinase elevation ([2]; 45 mg/kg) was 4 fold upper limit of normal and the reticulocyte count ([2]; high dose group (45 mg/kg), Day 15, controls 2.1%) was 4.1%. The “amount of free compound in human plasma” value (human plasma proteins) was “approximately 7%”, the fraction unbound at 4 h [3] was 0.07 and the AUC ([4]; in vivo, 5 mg/kg) was 13600 ng·h/mL. The half-life ([4]; plasma, intravenous, across the dose range, read-out: terminal half-life (converted)) was roughly 16 h, the Cmax ([4]; plasma, iv, 5 mg/kg, 60 min infusion) was 750 ng/mL and the AUC ([4]; plasma, iv, 5 mg/kg, 60 min infusion, mean of two dogs, read-out: AUC) was 13600 ng·h/mL. For the same molecule, the half-life ([4]; plasma, iv, 5 mg/kg, 60 min infusion, read-out: T1/2) was roughly 16 h, the Cmax ([4]; plasma, iv, 15 mg/kg, 60 min infusion) was 1150 ng/mL and the AUC ([4]; plasma, iv, 15 mg/kg, 60 min infusion, mean of two dogs, read-out: AUC) was 20200 ng·h/mL. For the same molecule, the half-life ([4]; plasma, iv, 15 mg/kg, 60 min infusion, read-out: T1/2) was roughly 16 h, the Cmax ([4]; plasma, iv, 30 mg/kg, 60 min infusion) was 1480 ng/mL and the AUC ([4]; plasma, iv, 30 mg/kg, 60 min infusion, mean of two dogs, read-out: AUC) was 26000 ng·h/mL. For the same molecule, the half-life ([4]; plasma, iv, 30 mg/kg, 60 min infusion, read-out: T1/2) was roughly 16 h, the findings ([5]; 15 mg/kg and 35 mg/kg) was “signs of reversible extravascular hemolysis” and the bilirubin ([5]; Days 2 and 23, resolved by Day 37) was “dose-dependent slight increase”. For the same molecule, the ophthalmologic findings ([5]; dog, in vivo) was “no drug-related ophthalmologic findings”, the “splenic enlargement (animals)” value ([5]; high-dose (35 mg/kg)) was 3/8 and the decreased hemoglobin ([5]; high-dose (35 mg/kg)) was roughly 5 g/dL. For the same molecule, the “mean decrease in body weight” value ([5]; high-dose (35 mg/kg), females) was −4%, the “mean decrease in body weight” value ([5]; high-dose (35 mg/kg), males) was −7% and the “splenic enlargement (animals)” value ([5]; mid-dose (15 mg/kg)) was 5/8. For the same molecule, the decreased hemoglobin ([5]; mid-dose (15 mg/kg)) was roughly 3 g/dL, the peak plasma level [6] was “approximately 8 μM” and the “time at which peak plasma levels were achieved” value [6] was “within one-half hour”. It also gave a CC50 (CAOV-3 [7]) of 1560 nM, a CC50 (BxPC-3; BXPC-3, read-out: LC50 (Replicate Results)) of 1890 nM and a CC50 (BxPC-3; BXPC-3, read-out: LC50 (Replicate Results), BxPC-3, 4 hour exposure, colonies after 14-21 days) of 1890 nM. The CC50 (PaCa-2; Homo sapiens, PaCa-2, read-out: LC50 (Replicate Results)) was 1680 nM, the CC50 (PaCa-2; Homo sapiens, PaCa-2, read-out: LC50 (Replicate Results), PaCa-2, 4 hour exposure, colonies after 14-21 days) was 1680 nM and the CC50 (PaCa-2; human, 4 h) was 1520 nM. The NOEL ([8]; Study 1A) was 10 mg/kg/dose, the “bilirubin (slight increase)” value ([8]; high dose animals, Days 2 and 23, ULN 0.27 mg/dl) was 0.33 mg/dL and the decrease in hemoglobin ([8]; mid- and high-dose animals, normalized by Day 37) was less than 2 g/dL. For the same molecule, the “animals that died during the infusion” value ([9]; 60 mg/kg at 6 mg/ml) was “Five of the ten animals”, the mean body temperature ([9]; 60 mg/kg, 15-minutes post dosing) was 34.6 °C and the NOEL ([9]; single intravenous dose, male Sprague Dawley rats) was 25 mg/kg. The CC50 (CAOV-3 [10]) was 1440 nM, the “Colonies, Percentage of control” value (ASPC-1) was 45 (1.9) Percentage of control and the number of colonies [11] was “no reduction in the number of colonies”.
